Data: patent US20250161308A1, “Methods of Treating Covid-Related Disorders” (priority 2022, published 2025)
Like-named read-outs stand apart in the source and are kept apart here.

Assays:
[1] = test system: Rat primary cortical neuron cultures; format: cell-based; settings: for Significance of neuroprotection vs 1 uM LPS: 24 h LPS; for protection of primary neurons from LPS-stimulated inflammatory toxicity: at at least one dose tested
[2] = test system: Rat hippocampal neurons; assay: Neurite outgrowth assay; format: cell-based
[3] = test system: Rat hippocampal neurons; assay: Synaptogenesis assay; format: cell-based; settings: for Significant increase in: Synapses: Table 4 study
[4] = test system: LPS-induced cognitive deficit in CD-1 mice; assay: Rodent LPS model of brain inflammation, T-maze spontaneous alternation; format: in vivo, mouse; settings: for Recovery (%) / Spontaneous alternation (%) Mean: LPS 250 μg/kg
[5] = test system: THP1-differentiated macrophages; format: cell-based, human; set-up: key to Significant reduction in IL-6 / Significant reduction in TNF-α / Significant reduction in IL-1β: NS: indicates a non-significant reduction in the indicated cytokine; +: indicates a p value<0.05 in Tukey post test; ++: indicates a p value<0.01 in Tukey post test; settings: for Significant reduction in IL-1β / Significant reduction in IL-6 / Significant reduction in TNF-α: 24 hrs LPS
[6] = test system: pulmonary LPS-stimulated rats; assay: Immune cell infiltration in BALF, LPS acute pulmonary inflammation; format: in vivo, rat
[7] = test system: pulmonary LPS-stimulated rats; assay: Cytokine expression in BALF supernatant (multiplex immunoassay), LPS acute pulmonary inflammation; format: in vivo, rat
[8] = test system: scopolamine-induced spatial memory deficits in rats; assay: Scopolamine-induced spatial memory deficit, Morris water maze (3 mg/kg scopolamine, 8 days); format: in vivo, rat

CCC(C)CN1CC2N(Cc3ccc(C(F)(F)F)cc3)CCC(=O)N2[C@@H](C)C1=O (some centres unmarked) [Compound 5a]
Significance of neuroprotection vs 1 uM LPS ([1]; 0.1 nM): +++ (+++ indicates p<0.001) | Significance of neuroprotection vs 1 uM LPS ([1]; 1 nM): +++ (+++ indicates p<0.001) | Significance of neuroprotection vs 1 uM LPS ([1]; 10 nM): +++ (+++ indicates p<0.001) | Significance of neuroprotection vs 1 uM LPS ([1]; 100 nM): +++ (+++ indicates p<0.001) | Significance of neuroprotection vs 1 uM LPS ([1]; 1 μM): +++ (+++ indicates p<0.001) | protection of primary neurons from LPS-stimulated inflammatory toxicity [1]: protected primary neurons from LPS-stimulated inflammatory toxicity | neurite length / extension of neurites (in words) [2]: increase neurite length at 1 nM | Significant increase in: Neurite length ([2]; 1 nM, Table 4 study): ++++ (++++ = p < 0.0001) | synapse counts (in words) [3]: increase synapse counts at doses of 1 nM and 100 nM | Significant increase in: Synapses ([3]; 1 nM): ++++ (++++ = p < 0.0001) | Significant increase in: Synapses ([3]; 100 nM): ++++ (++++ = p < 0.0001) | Recovery (%) ([4]; 1.25 mg/kg p.o. 14 days): 58% | Spontaneous alternation (%) Mean ([4]; 1.25 mg/kg p.o. 14 days): 59% | Spontaneous alternation (%) Mean ([4]; 1.25 mg/kg p.o. 14 days, listed as Cmpd 5a): 59.3% | Recovery (%) ([4]; 2.5 mg/kg p.o. 14 days): 53% | Spontaneous alternation (%) Mean ([4]; 2.5 mg/kg p.o. 14 days): 58% | Spontaneous alternation (%) Mean ([4]; 2.5 mg/kg p.o. 14 days, listed as Cmpd 5a): 57.9% | Recovery (%) ([4]; 5 mg/kg p.o. 14 days): 64% | Spontaneous alternation (%) Mean ([4]; 5 mg/kg p.o. 14 days): 61% | Spontaneous alternation (%) Mean ([4]; 5 mg/kg p.o. 14 days, listed as Cmpd 5a): 60.7% | Recovery (%) ([4]; 10 mg/kg p.o. 14 days): 53% | Spontaneous alternation (%) Mean ([4]; 10 mg/kg p.o. 14 days): 58% | Spontaneous alternation (%) Mean ([4]; 10 mg/kg p.o. 14 days, listed as Cmpd 5a): 57.9% | Recovery (%) ([4]; 20 mg/kg p.o. 14 days): 61% | Spontaneous alternation (%) Mean ([4]; 20 mg/kg p.o. 14 days): 60% | Spontaneous alternation (%) Mean ([4]; 20 mg/kg p.o. 14 days, listed as Cmpd 5a): 60.0% | significance of reversal of LPS-induced cognitive deficit (in words) ([4]; T-maze): significant reversal of LPS-induced cognitive deficits at all doses | Significant reduction in IL-1β ([5]; 0.1 nM): ++ (indicates a p value<0.01 in Tukey post test) | Significant reduction in IL-6 ([5]; 0.1 nM): NS | Significant reduction in TNF-α ([5]; 0.1 nM): NS | Significant reduction in IL-1β ([5]; 10 nM): ++ (indicates a p value<0.01 in Tukey post test) | Significant reduction in IL-6 ([5]; 10 nM): + (indicates a p value<0.05 in Tukey post test) | Significant reduction in TNF-α ([5]; 10 nM): NS | Significant reduction in IL-1β ([5]; 1000 nM): ++ (indicates a p value<0.01 in Tukey post test) | Significant reduction in IL-6 ([5]; 1000 nM): ++ (indicates a p value<0.01 in Tukey post test) | Significant reduction in TNF-α ([5]; 1000 nM): + (indicates a p value<0.05 in Tukey post test) | expression of IL-1β (in words) ([5]; at at least one tested dose): significantly reduced the expression of IL-1β and TNF-α | expression of IL-6 (in words) ([5]; at at least one tested dose): significantly reduced the expression of IL-6 | expression of TNF-α (in words) ([5]; at at least one tested dose): significantly reduced the expression of IL-1β and TNF-α | Neutrophils in BALF, reduction vs disease control ([6]; 0.075 mg/kg IV): ++ (++ = >25% reduction in cell count vs disease control) | Total Leukocytes in BALF, reduction vs disease control ([6]; 0.075 mg/kg IV): ++ (++ = >25% reduction in cell count vs disease control) | Neutrophils in BALF, reduction vs disease control ([6]; 0.75 mg/kg IV): + (+ = >5% reduction in cell count vs disease control) | Total Leukocytes in BALF, reduction vs disease control ([6]; 0.75 mg/kg IV): + (+ = >5% reduction in cell count vs disease control) | Neutrophils in BALF, reduction vs disease control ([6]; 7.5 mg/kg IV): + (+ = >5% reduction in cell count vs disease control) | Total Leukocytes in BALF, reduction vs disease control ([6]; 7.5 mg/kg IV): + (+ = >5% reduction in cell count vs disease control) | neutrophil counts compared to LPS-only controls (in words) ([6]; rat, in vivo): reduced both total leukocyte counts and neutrophil counts | total leukocyte counts compared to LPS-only controls (in words) ([6]; rat, in vivo): reduced both total leukocyte counts and neutrophil counts | CCL3, significant change in expression in BALF supernatant ([7]; 0.075 mg/kg IV): + (+ = Significant change in cytokine quantification, p < 0.05 by Student's T-test.) | CX3CL1, significant change in expression in BALF supernatant ([7]; 0.075 mg/kg IV): + (+ = Significant change in cytokine quantification, p < 0.05 by Student's T-test.) | EGF, significant change in expression in BALF supernatant ([7]; 0.075 mg/kg IV): + (+ = Significant change in cytokine quantification, p < 0.05 by Student's T-test.) | IFN-γ, significant change in expression in BALF supernatant ([7]; 0.075 mg/kg IV): + (+ = Significant change in cytokine quantification, p < 0.05 by Student's T-test.) | IL-1α, significant change in expression in BALF supernatant ([7]; 0.075 mg/kg IV): + (+ = Significant change in cytokine quantification, p < 0.05 by Student's T-test.) | IL-1β, significant change in expression in BALF supernatant ([7]; 0.075 mg/kg IV): + (+ = Significant change in cytokine quantification, p < 0.05 by Student's T-test.) | IL-10, significant change in expression in BALF supernatant ([7]; 0.075 mg/kg IV): + (+ = Significant change in cytokine quantification, p < 0.05 by Student's T-test.) | IL-12p70, significant change in expression in BALF supernatant ([7]; 0.075 mg/kg IV): + (+ = Significant change in cytokine quantification, p < 0.05 by Student's T-test.) | IL-17A, significant change in expression in BALF supernatant ([7]; 0.075 mg/kg IV): + (+ = Significant change in cytokine quantification, p < 0.05 by Student's T-test.) | IFN-γ, significant change in expression in BALF supernatant ([7]; 0.75 mg/kg IV): + (+ = Significant change in cytokine quantification, p < 0.05 by Student's T-test.) | IL-1α, significant change in expression in BALF supernatant ([7]; 0.75 mg/kg IV): + (+ = Significant change in cytokine quantification, p < 0.05 by Student's T-test.) | IL-1β, significant change in expression in BALF supernatant ([7]; 0.75 mg/kg IV): + (+ = Significant change in cytokine quantification, p < 0.05 by Student's T-test.) | IL-10, significant change in expression in BALF supernatant ([7]; 0.75 mg/kg IV): + (+ = Significant change in cytokine quantification, p < 0.05 by Student's T-test.) | IL-17A, significant change in expression in BALF supernatant ([7]; 0.75 mg/kg IV): + (+ = Significant change in cytokine quantification, p < 0.05 by Student's T-test.) | IL-1α, significant change in expression in BALF supernatant ([7]; 7.5 mg/kg IV): + (+ = Significant change in cytokine quantification, p < 0.05 by Student's T-test.) | IL-10, significant change in expression in BALF supernatant ([7]; 7.5 mg/kg IV): + (+ = Significant change in cytokine quantification, p < 0.05 by Student's T-test.) | cytokines with significant changes in expression in BALF supernatant (list) ([7]; any dose, p<0.05 vs LPS-only animals): CCL3, CXCL1, IFN-γ, IL-1α, IL-1p, IL-1β, IL-12p70, and IL-17A

CCC(C)CN1CC2N(Cc3ccc(OC(F)F)cc3)CCC(=O)N2[C@@H](C)C1=O (some centres unmarked) [Compound 6a]
Significance of neuroprotection vs 1 uM LPS ([1]; 0.1 nM): +++ (+++ indicates p<0.001) | Significance of neuroprotection vs 1 uM LPS ([1]; 1 nM): +++ (+++ indicates p<0.001) | Significance of neuroprotection vs 1 uM LPS ([1]; 10 nM): +++ (+++ indicates p<0.001) | Significance of neuroprotection vs 1 uM LPS ([1]; 100 nM): +++ (+++ indicates p<0.001) | Significance of neuroprotection vs 1 uM LPS ([1]; 1 μM): +++ (+++ indicates p<0.001) | protection of primary neurons from LPS-stimulated inflammatory toxicity [1]: protected primary neurons from LPS-stimulated inflammatory toxicity | Significant reduction in IL-1β ([5]; 0.1 nM): NS | Significant reduction in IL-6 ([5]; 0.1 nM): NS | Significant reduction in TNF-α ([5]; 0.1 nM): NS | Significant reduction in IL-1β ([5]; 10 nM): NS | Significant reduction in IL-6 ([5]; 10 nM): NS | Significant reduction in TNF-α ([5]; 10 nM): NS | Significant reduction in IL-1β ([5]; 1000 nM): + (indicates a p value<0.05 in Tukey post test) | Significant reduction in IL-6 ([5]; 1000 nM): NS | Significant reduction in TNF-α ([5]; 1000 nM): + (indicates a p value<0.05 in Tukey post test) | expression of IL-1β (in words) ([5]; at at least one tested dose): significantly reduced the expression of IL-1β and TNF-α | expression of TNF-α (in words) ([5]; at at least one tested dose): significantly reduced the expression of IL-1β and TNF-α | Cognitive Improvement ([8]; 1 mg/kg PO): − (− indicates post-test p-value above 0.06) | Cognitive Improvement ([8]; 10 mg/kg PO): ++ (++ indicates post-test p-value between 0.05 and 0.01)
